Laboratory results: publication PMC2891058 (Biochemistry, 2010)

What was measured:
[1] = biological target: S. typhimurium QAPRTase (quinolinate phosphoribosyltransferase) (Salmonella enterica, UniProt P30012, E215Q); assay: biochemical
[2] = biological target: S. typhimurium QAPRTase (quinolinate phosphoribosyltransferase) (Salmonella enterica, UniProt P30012, K285A); assay: biochemical
[3] = biological target: S. typhimurium QAPRTase (quinolinate phosphoribosyltransferase) (Salmonella enterica, UniProt P30012, E215A); assay: biochemical
[4] = biological target: S. typhimurium QAPRTase (quinolinate phosphoribosyltransferase) (Salmonella enterica, UniProt P30012); assay: stopped-flow tryptophan fluorescence; format: binding
[5] = biological target: S. typhimurium QAPRTase (quinolinate phosphoribosyltransferase) (Salmonella enterica, UniProt P30012, K154A); assay: biochemical
[6] = biological target: S. typhimurium QAPRTase (quinolinate phosphoribosyltransferase) (Salmonella enterica, UniProt P30012, D236A); assay: biochemical
[7] = biological target: S. typhimurium QAPRTase (quinolinate phosphoribosyltransferase) (Salmonella enterica, UniProt P30012, E215D); assay: biochemical

## O=P(O)(O)OC[C@H]1O[C@H](OP(=O)(O)OP(=O)(O)O)[C@H](O)[C@@H]1O [PRPP]
[1]
  Kd: 113 ± 24 µM
[2]
  Kd: ~1000 µM
[3]
  Kd: 770 ± 200 µM
[4]
  Kd: 53 µM
[5]
  Kd: > 1000 µM
[6]
  Kd: 127 ± 25 µM
[7]
  Kd: 417 ± 76 µM
